Assay results as given in paper PMC5218480 (PLoS ONE, 2017).

Tested on: MV-4-11 cells
Test: Gene expression microarray analysis (Affymetrix PrimeView) and GSEA
Type: cell-based, human
Set-up: RFU PODN (11730768_x_at) / Fold change /veh PODN (11730768_x_at) / RFU LINC00158 (11744669_a_at) / Fold change /veh LINC00158 (11744669_a_at) / RFU DUSP10 (11751237_a_at) / Fold change /veh DUSP10 (11751237_a_at) / RFU ID3 (11757404_x_at) / Fold change /veh ID3 (11757404_x_at) / RFU PLEKHG5 (11737974_s_at) / Fold change /veh PLEKHG5 (11737974_s_at) / RFU LRRC4B (11730491_at) / Fold change /veh LRRC4B (11730491_at) / RFU GIMAP4 (11747438_a_at) / Fold change /veh GIMAP4 (11747438_a_at) / RFU KRT8 (11758183_x_at) / Fold change /veh KRT8 (11758183_x_at) / RFU CNN1 (11734310_a_at) / Fold change /veh CNN1 (11734310_a_at) / RFU VPS37D (11726825_at) / Fold change /veh VPS37D (11726825_at) / RFU C10orf10 (11716522_x_at) / Fold change /veh C10orf10 (11716522_x_at) / RFU KIR2DL2 /// KIR2DL4 /// KIR2DL5A /// KIR2DL5B /// KIR2DS1 /// KIR2DS2 /// KIR2DS3 /// KIR2DS4 /// KIR3DL3 /// KIR3DL3 /// KIR3DS1 (11738374_at) / Fold change /veh KIR2DL2 /// KIR2DL4 /// KIR2DL5A /// KIR2DL5B /// KIR2DS1 /// KIR2DS2 /// KIR2DS3 /// KIR2DS4 /// KIR3DL3 /// KIR3DL3 /// KIR3DS1 (11738374_at) / RFU C1QL1 (11718748_at) / Fold change /veh C1QL1 (11718748_at) / RFU TMPRSS4 (11747572_a_at) / Fold change /veh TMPRSS4 (11747572_a_at) / RFU HAMP (11756126_x_at) / Fold change /veh HAMP (11756126_x_at) / RFU RNFT2 (11725882_a_at) / Fold change /veh RNFT2 (11725882_a_at) / RFU NR4A2 (11747474_a_at) / Fold change /veh NR4A2 (11747474_a_at) / RFU ABCC12 (11746883_a_at) / Fold change /veh ABCC12 (11746883_a_at) / RFU TMEM136 (11760407_x_at) / Fold change /veh TMEM136 (11760407_x_at) / RFU CLDN22 /// WWC2 (11732394_at) / Fold change /veh CLDN22 /// WWC2 (11732394_at) / RFU HLA-DPB1 (11760878_x_at) / Fold change /veh HLA-DPB1 (11760878_x_at) / RFU SPINT1 (11716480_a_at) / Fold change /veh SPINT1 (11716480_a_at) / RFU GAP43 (11754022_s_at) / Fold change /veh GAP43 (11754022_s_at) / RFU A4GNT (11735810_at) / Fold change /veh A4GNT (11735810_at) / RFU PRB3 (11715151_x_at) / Fold change /veh PRB3 (11715151_x_at) / RFU TUBB4B (11761932_at) / Fold change /veh TUBB4B (11761932_at) / RFU CAPN14 (11732068_a_at) / Fold change /veh CAPN14 (11732068_a_at) / RFU TMCC2 (11721928_a_at) / Fold change /veh TMCC2 (11721928_a_at) / RFU IRGQ (11745062_a_at) / Fold change /veh IRGQ (11745062_a_at) / RFU FAM174B (11720279_a_at) / Fold change /veh FAM174B (11720279_a_at) / RFU TMPRSS4 (11748680_a_at) / Fold change /veh TMPRSS4 (11748680_a_at) / RFU FAM212B (11763350_a_at) / Fold change /veh FAM212B (11763350_a_at) / RFU PLEKHG5 (11743358_a_at) / Fold change /veh PLEKHG5 (11743358_a_at) / RFU ZSCAN30 (11745921_a_at) / Fold change /veh ZSCAN30 (11745921_a_at) / RFU CMKLR1 (11741424_a_at) / Fold change /veh CMKLR1 (11741424_a_at) / RFU LOC101060620 /// MAPK8IP1 (11723275_at) / Fold change /veh LOC101060620 /// MAPK8IP1 (11723275_at) / RFU SPTSSB (11747773_x_at) / Fold change /veh SPTSSB (11747773_x_at) / RFU PRSS12 (11739890_at) / Fold change /veh PRSS12 (11739890_at) / RFU BIN1 (11741810_x_at) / Fold change /veh BIN1 (11741810_x_at) / RFU WNT11 (11732464_a_at) / Fold change /veh WNT11 (11732464_a_at) / RFU C10orf10 (11716521_a_at) / Fold change /veh C10orf10 (11716521_a_at) / RFU C5orf56 (11738089_at) / Fold change /veh C5orf56 (11738089_at) / RFU CYB561 (11721691_x_at) / Fold change /veh CYB561 (11721691_x_at) / RFU ANKRD19P (11752326_a_at) / Fold change /veh ANKRD19P (11752326_a_at) / RFU OR2T12 /// OR2T33 /// OR2T8 (11738714_s_at) / Fold change /veh OR2T12 /// OR2T33 /// OR2T8 (11738714_s_at) / RFU VCAN (11748164_a_at) / Fold change /veh VCAN (11748164_a_at) / RFU JSRP1 (11732532_at) / Fold change /veh JSRP1 (11732532_at) / RFU KRTAP10-11 (11738290_x_at) / Fold change /veh KRTAP10-11 (11738290_x_at) / RFU MYO3A (11730013_a_at) / Fold change /veh MYO3A (11730013_a_at) / RFU EBF3 (11725865_a_at) / Fold change /veh EBF3 (11725865_a_at) / RFU CAMK2N1 (11719241_x_at) / Fold change /veh CAMK2N1 (11719241_x_at) / RFU C5orf56 (11738088_a_at) / Fold change /veh C5orf56 (11738088_a_at) / RFU OLFML3 (11715873_a_at) / Fold change /veh OLFML3 (11715873_a_at) / RFU LOC100653217 /// NTM (11731650_a_at) / Fold change /veh LOC100653217 /// NTM (11731650_a_at) / RFU MAPK11 (11762145_a_at) / Fold change /veh MAPK11 (11762145_a_at) / RFU FIZ1 (11724087_x_at) / Fold change /veh FIZ1 (11724087_x_at) / RFU OASL (11726364_x_at) / Fold change /veh OASL (11726364_x_at) / RFU SOX15 (11748057_x_at) / Fold change /veh SOX15 (11748057_x_at) / RFU CD79A (11719716_a_at) / Fold change /veh CD79A (11719716_a_at) / RFU HIST1H1D (11736915_at) / Fold change /veh HIST1H1D (11736915_at) / RFU CASKIN2 (11723855_a_at) / Fold change /veh CASKIN2 (11723855_a_at) / RFU LOC730098 (11760151_x_at) / Fold change /veh LOC730098 (11760151_x_at) / RFU OR4N2 (11742367_at) / Fold change /veh OR4N2 (11742367_at) / RFU PRRT2 (11749266_a_at) / Fold change /veh PRRT2 (11749266_a_at) / RFU SNX32 (11753110_a_at) / Fold change /veh SNX32 (11753110_a_at) / RFU CDHR5 (11726645_a_at) / Fold change /veh CDHR5 (11726645_a_at) / RFU RCAN1 (11760418_a_at) / Fold change /veh RCAN1 (11760418_a_at) / RFU FAM167A (11723789_a_at) / Fold change /veh FAM167A (11723789_a_at) / RFU FAM26E (11764081_at) / Fold change /veh FAM26E (11764081_at) / RFU ISYNA1 (11749810_s_at) / Fold change /veh ISYNA1 (11749810_s_at) / RFU ACY1 (11761880_at) / Fold change /veh ACY1 (11761880_at) / RFU 11764098_at / Fold change /veh 11764098_at / RFU SAMD14 (11745864_x_at) / Fold change /veh SAMD14 (11745864_x_at) / RFU NPB (11741838_a_at) / Fold change /veh NPB (11741838_a_at) / RFU TMPRSS6 (11731388_a_at) / Fold change /veh TMPRSS6 (11731388_a_at) / RFU KRTAP10-2 (11738614_at) / Fold change /veh KRTAP10-2 (11738614_at) / RFU ARHGAP8 /// PRR5-ARHGAP8 (11727945_x_at) / Fold change /veh ARHGAP8 /// PRR5-ARHGAP8 (11727945_x_at) / RFU KRTAP5-7 /// NADSYN1 (11734609_at) / Fold change /veh KRTAP5-7 /// NADSYN1 (11734609_at) / RFU RASL12 (11751679_a_at) / Fold change /veh RASL12 (11751679_a_at) / RFU CDKN2B (11736163_a_at) / Fold change /veh CDKN2B (11736163_a_at) / RFU PRF1 (11729649_at) / Fold change /veh PRF1 (11729649_at) / RFU, ZNF638 /// ZNF638-IT1 / Fold change vs veh, ZNF638 /// ZNF638-IT1 / RFU, PANK3 / Fold change vs veh, PANK3 / RFU, SH3YL1 / Fold change vs veh, SH3YL1 / RFU, ZEB2 / Fold change vs veh, ZEB2 / RFU, NRIP1 / Fold change vs veh, NRIP1 / RFU, PTTG1IP / Fold change vs veh, PTTG1IP / RFU, CAPN2 / Fold change vs veh, CAPN2 / RFU, MED14 / Fold change vs veh, MED14 / RFU, SNORA58 / Fold change vs veh, SNORA58 / RFU, C1orf63 / Fold change vs veh, C1orf63 / RFU, LRRFIP1 / Fold change vs veh, LRRFIP1 / RFU, NDUFAF7 / Fold change vs veh, NDUFAF7 / RFU, SLC12A2 / Fold change vs veh, SLC12A2 / RFU, IBTK / Fold change vs veh, IBTK / RFU, ESF1 / Fold change vs veh, ESF1 / Fold change vs veh, TMEM50B / RFU, TAOK1 / Fold change vs veh, TAOK1 / RFU, ACBD3 / Fold change vs veh, ACBD3 / RFU, TMA16 / Fold change vs veh, TMA16 / RFU, RWDD3 / Fold change vs veh, RWDD3 / RFU, BCAT1 / Fold change vs veh, BCAT1 / RFU, EDEM3 / Fold change vs veh, EDEM3 / RFU, TMEM33 / Fold change vs veh, TMEM33 / RFU, WDR75 / Fold change vs veh, WDR75 / RFU, AHCTF1 / Fold change vs veh, AHCTF1 / RFU, TFRC / Fold change vs veh, TFRC / RFU, ZDHHC17 / Fold change vs veh, ZDHHC17 / RFU, NOM1 / Fold change vs veh, NOM1 / RFU, ARL8B / Fold change vs veh, ARL8B / RFU, ZBTB11 / Fold change vs veh, ZBTB11 / RFU, TAMM41 / Fold change vs veh, TAMM41 / RFU, KIAA1704 /// LOC100996395 / Fold change vs veh, KIAA1704 /// LOC100996395 / RFU, ING1 / Fold change vs veh, ING1 / RFU, TRMT61B / Fold change vs veh, TRMT61B / RFU, FUBP3 / Fold change vs veh, FUBP3 / RFU, TP53 / Fold change vs veh, TP53 / RFU, TNKS2 / Fold change vs veh, TNKS2 / RFU, ZFP14 / Fold change vs veh, ZFP14 / RFU, ACTR2 / Fold change vs veh, ACTR2 / RFU, PPP3R1 / Fold change vs veh, PPP3R1 / RFU, PIK3R1 / Fold change vs veh, PIK3R1 / RFU, HNRNPA1 / Fold change vs veh, HNRNPA1 / RFU, RNF170 / Fold change vs veh, RNF170 / RFU, ZNF28 / Fold change vs veh, ZNF28 / RFU, RNGTT / Fold change vs veh, RNGTT / RFU, OGT / Fold change vs veh, OGT / RFU, BRD1 / Fold change vs veh, BRD1 / RFU, MARS / Fold change vs veh, MARS / RFU, ZNF655 / Fold change vs veh, ZNF655 / RFU, FAHD1 / Fold change vs veh, FAHD1 / RFU, BDP1 / Fold change vs veh, BDP1 / RFU, LRRCC1 / Fold change vs veh, LRRCC1 / RFU, ARID1A / Fold change vs veh, ARID1A / RFU, ZNF146 / Fold change vs veh, ZNF146 / RFU, ZNF330 / Fold change vs veh, ZNF330 / RFU, GPN3 / Fold change vs veh, GPN3 / RFU, C9orf123 / Fold change vs veh, C9orf123 / RFU, N4BP2L2 / Fold change vs veh, N4BP2L2 / RFU, ARFIP1 / Fold change vs veh, ARFIP1 / RFU, FAM179B / Fold change vs veh, FAM179B / RFU, BCL10 / Fold change vs veh, BCL10 / RFU, UHRF1BP1L / Fold change vs veh, UHRF1BP1L / RFU, BET1 / Fold change vs veh, BET1 / RFU, CNOT2 / Fold change vs veh, CNOT2 / RFU, ZNF268 / Fold change vs veh, ZNF268 / Fold change vs veh, ZNF507 / RFU, DGCR2 / Fold change vs veh, DGCR2 / RFU, WDSUB1 / Fold change vs veh, WDSUB1 / Fold change vs veh, HSP90B1 /// MIR3652 / RFU, ADSS / Fold change vs veh, ADSS / RFU, GK / Fold change vs veh, GK / RFU, ZNF148 / Fold change vs veh, ZNF148 / RFU, TAF9 / Fold change vs veh, TAF9 / RFU, SLC1A5 / Fold change vs veh, SLC1A5 / RFU, SLMO2 / Fold change vs veh, SLMO2 / RFU, ABCC4 / Fold change vs veh, ABCC4 / RFU, LOC101060439 /// RAP1B / Fold change vs veh, LOC101060439 /// RAP1B / RFU, RFX7 / Fold change vs veh, RFX7 / RFU, GTPBP10 / Fold change vs veh, GTPBP10 / RFU, CNEP1R1 / Fold change vs veh, CNEP1R1 / RFU, BIVM-ERCC5 /// ERCC5 / Fold change vs veh, BIVM-ERCC5 /// ERCC5 / RFU, ILF3 / Fold change vs veh, ILF3 / RFU 11762660_at / Fold change /veh 11762660_at / RFU VCAN (11757783_s_at) / Fold change /veh VCAN (11757783_s_at) / RFU DDX43 (11728927_at) / Fold change /veh DDX43 (11728927_at) / RFU KRT8 (11758188_x_at) / Fold change /veh KRT8 (11758188_x_at) / RFU NKD1 (11759106_at) / Fold change /veh NKD1 (11759106_at) / RFU SRD5A1 (11742802_a_at) / Fold change /veh SRD5A1 (11742802_a_at) / RFU TPSAB1 /// TPSB2 (11721975_s_at) / Fold change /veh TPSAB1 /// TPSB2 (11721975_s_at) / RFU GSTM3 (11746129_a_at) / Fold change /veh GSTM3 (11746129_a_at) / RFU IL23R (11737362_x_at) / Fold change /veh IL23R (11737362_x_at) / RFU TMEM51 (11727254_a_at) / Fold change /veh TMEM51 (11727254_a_at) / RFU PIWIL2 (11732686_x_at) / Fold change /veh PIWIL2 (11732686_x_at) / RFU ORM1 (11744905_x_at) / Fold change /veh ORM1 (11744905_x_at) / RFU CCDC152 (11743942_at) / Fold change /veh CCDC152 (11743942_at) / RFU ECM1 (11717891_a_at) / Fold change /veh ECM1 (11717891_a_at) / RFU IL23R (11748794_a_at) / Fold change /veh IL23R (11748794_a_at) / RFU TNFAIP8L3 (11732012_x_at) / Fold change /veh TNFAIP8L3 (11732012_x_at) / RFU MBOAT4 (11741988_at) / Fold change /veh MBOAT4 (11741988_at) / RFU 11764193_at / Fold change /veh 11764193_at / RFU TMEM53 (11763286_at) / Fold change /veh TMEM53 (11763286_at) / RFU MAGEB2 (11727129_at) / Fold change /veh MAGEB2 (11727129_at) / RFU TMEM200A (11744735_a_at) / Fold change /veh TMEM200A (11744735_a_at) / RFU CCDC152 (11751479_a_at) / Fold change /veh CCDC152 (11751479_a_at) / RFU FAM211A (11726209_a_at) / Fold change /veh FAM211A (11726209_a_at) / RFU RGS16 (11746705_a_at) / Fold change /veh RGS16 (11746705_a_at) / RFU VCAN (11755009_s_at) / Fold change /veh VCAN (11755009_s_at) / RFU RHOB (11743442_s_at) / Fold change /veh RHOB (11743442_s_at) / RFU RGS16 (11720943_a_at) / Fold change /veh RGS16 (11720943_a_at) / RFU RGS16 (11720944_at) / Fold change /veh RGS16 (11720944_at) / RFU, VPS4B / Fold change vs veh, VPS4B / RFU, CREB1 / Fold change vs veh, CREB1 / RFU, DNAJC13 / Fold change vs veh, DNAJC13 / RFU, GNAQ / Fold change vs veh, GNAQ / RFU, CDK5R1 / Fold change vs veh, CDK5R1 / RFU, ZRANB3 / Fold change vs veh, ZRANB3 / RFU, CUL4A / Fold change vs veh, CUL4A / RFU, CCNY / Fold change vs veh, CCNY / RFU, UFL1 / Fold change vs veh, UFL1 / RFU, COG3 / Fold change vs veh, COG3 / RFU, DIAPH2 / Fold change vs veh, DIAPH2 / RFU, SKA2 / Fold change vs veh, SKA2 / RFU, AFF3 / Fold change vs veh, AFF3 / RFU, LMF1 / Fold change vs veh, LMF1 / RFU, IPO11 / Fold change vs veh, IPO11 / RFU, DFFB / Fold change vs veh, DFFB / RFU, FOXP1 / Fold change vs veh, FOXP1 / RFU, CARD8 / Fold change vs veh, CARD8 / RFU, STRN3 / Fold change vs veh, STRN3 / RFU, ADK / Fold change vs veh, ADK / RFU, RASSF2 / Fold change vs veh, RASSF2 / RFU, WIPF1 / Fold change vs veh, WIPF1 / RFU, LARP1B / Fold change vs veh, LARP1B / RFU, RASA1 / Fold change vs veh, RASA1 / RFU, RB1 / Fold change vs veh, RB1 / RFU, PPFIA1 / Fold change vs veh, PPFIA1 / RFU, MAT2A / Fold change vs veh, MAT2A / RFU, CCT5 / Fold change vs veh, CCT5 / RFU, WDR92 / Fold change vs veh, WDR92 / RFU, CUX1 / Fold change vs veh, CUX1 / RFU, TTC7A / Fold change vs veh, TTC7A / RFU, TMEM135 / Fold change vs veh, TMEM135 / RFU, DEPTOR / Fold change vs veh, DEPTOR / RFU, CPM / Fold change vs veh, CPM / RFU, DNAJB6 / Fold change vs veh, DNAJB6 / RFU, CACNA2D3 / Fold change vs veh, CACNA2D3 / RFU, DTX4 / Fold change vs veh, DTX4 / RFU, TFCP2 / Fold change vs veh, TFCP2 / RFU, GMCL1 /// GMCL1P1 / Fold change vs veh, GMCL1 /// GMCL1P1 / RFU, AEBP2 / Fold change vs veh, AEBP2 / RFU, SNHG1 /// SNORD22 /// SNORD25 /// SNORD26 /// SNORD27 /// SNORD28 /// SNORD29 /// SNORD31 / Fold change vs veh, SNHG1 /// SNORD22 /// SNORD25 /// SNORD26 /// SNORD27 /// SNORD28 /// SNORD29 /// SNORD31 / Fold change (Aza/veh), C12orf56 (ProbeSet 11735607_a_at) / Fold change (ACY-1035/veh), C12orf56 (ProbeSet 11735607_a_at) / Fold change (Aza/veh), FGFR1OP (ProbeSet 11751329_s_at) / Fold change (ACY-1035/veh), FGFR1OP (ProbeSet 11751329_s_at) / Fold change (Aza/veh), VPS36 (ProbeSet 11739960_a_at) / Fold change (ACY-1035/veh), VPS36 (ProbeSet 11739960_a_at) / RFU SYPL1 (11715823_x_at) / Fold change /veh SYPL1 (11715823_x_at) / RFU IGFBP7 (11715501_s_at) / Fold change /veh IGFBP7 (11715501_s_at) / RFU REEP3 (11722064_at) / Fold change /veh REEP3 (11722064_at) / RFU IGLL1 (11728026_x_at) / Fold change /veh IGLL1 (11728026_x_at): dose or concentration left out as unconfirmed
Details: MV-4-11 cells, 48 hours

Nc1ccc(-c2cccs2)cc1NC(=O)c1ccc2c(c1)cc(C1CC1)n2CCN1CCOCC1 [ACY-1035]
RFU MAPK11 (11762145_a_at): 21.16 RFU
